From patent US20260137807A1, “COMPOSITIONS AND METHODS FOR DELIVERING A MACROMOLECULE TO A CELL” (AstraZeneca AB, priority 2022, published 2026) come the findings set out here.

“Also recorded” adds a separate entry of the source.

For one data set, the system named is mCherry-GAL9 cells. Description: mCherry-GAL9 assay in live cells for 4 hours, screening. The settings on record: 5 μM (FIG. 6-8). It counts as cell-based. As to the method:
Cells were subjected to a 10-point concentration dilution (0-15 μM) for 2 hours and then fixed and imaged (FIG. 3 and FIG. 4). Images were analyzed and curves were generated from both mCherry-GAL9 puncta quantitation and cell survival as determined by nuclear morphology (FIG. 5). The GAL9 recruitment response support the functional splice-switching data with SSOs, confirming the mCherry-GAL9 assay as a powerful tool for screening endosomolytic compounds and supporting the hypothesis that AZ2467 (Compound 6) and AZ4800 (Compound 2) promote SSO activity by inducing endosomal rupture. The GAL9 assay was again conducted, this time in live cells for 4 hours with select compounds for screening. Compounds were screened at 5 μM (FIG. 6-8) or 0.3125-10 μM (FIG. 35-38). FIG. 39 and FIG. 47 provide results for select compounds at various doses 0.3125-10 μM.

A short description of data set [1]: Nanoparticle tracking analysis (NTA). Format: physicochemical. The settings on record: 1 μm or 5 μm oligonucleotide incubated with 5 μm AZ4800 for 2 hours. As to the method:
Many SSO transfection reagents work through complexation or association with the SSO. A nanoparticle tracking analysis (NTA) was performed to determine whether Compound 2 induced aggregation of oligonucleotides in cell media.
SSO was incubated in cell growth media with and without Compound 2 at 37° C. for 2 hours, mimicking the treatment plan shown in FIG. 10. Analysis was carried out with a Nanosight NS500 instrument running NTA 2.3 analytical software. A script that records 5×30 second videos in light-scatter mode was run with a camera level of 13. Analysis of the videos was then performed with screen gain set to 10 and a detection threshold at 7.

In the next data set the test system is HeLa Luc705 cells. The experiment in a line: Splice switching activity assay (Luc705 luciferase reporter), Example 4A. It counts as cell-based. The text has this:
(§1) HeLa Luc705 and Huh7 Luc705 cells were used to screen and characterize the SMC generated in Example 2 for their ability to increase levels of an SSO-induced splice variant by co-treatment of the cells with the SSO and SMC. The Luc705 reporter construct was used for quantitation of luciferase protein produced as a result of functional SSO delivery. (Kang et al. (1998) Biochemistry, 37(18):6235-6239; Rocha et al. (2016) Four Novel Splice-Switch Reporter Cell Lines: Distinct Impact of Oligonucleotide Chemistry and Delivery Vector on Biological Activity. Nucleic Acid Ther. 26(6):381). Briefly, a plasmid carrying the luciferase coding sequence interrupted by an insertion of intron 2 from β-globin pre-mRNA carrying a cryptic splice site was stably transfected into cells. Unless the aberrant slice site was masked by an antisense oligonucleotide, the pre-mRNA of luciferase was improperly processed.
(§2) HeLa Luc705 and Huh7 Luc705 cells were seeded in 96-well plates at 10,000 cells per well in growth media containing 1 μM Luc705-SSO and incubated to allow adherence and oligo internalization. After 24 hours, 10 μl of SMC diluted in Growth Media (DMEM+10% FBS) was added into each well. After 2 hours, media was removed from the wells and replaced with fresh growth media for 4 hours to allow for translation of the variant proteins. The media was then removed, and cells were lysed with 0.1% Triton-PBS.
(§3) To detect luciferase activity, 30 μL of cell lysate was transferred to white-walled 96-well plates. Luciferase intensity in each well was measured using a GloMax® 96 Microplate Luminometer machine (Promega) following auto-injection of 25 μL Luciferin substrate (Firefly Luciferase Assay System: Promega) per well. Photon measurements were acquired for 10 seconds, starting 2 seconds after injection.
(§4) To determine whether AZ4800 (Compound 2, FIG. 1B) and SSO must be present in the cell media simultaneously for Compound 2 to produce its synergistic effects, the treatment plan was modified from the UNC2383 treatment plan detailed by Wang et al. (2017) ACS Chem. Biol. 12(8):1999-2007 to include a 24 hour pre-treatment with SSO, followed by the addition of Compound 2 for two hours, followed by the removal of SSO and Compound 2, and finally a 4-hour protein translation period (FIG. 10).

The test system of a further data set is Huh7 Luc705 cells. Described as above. Format: cell-based.
Excerpt: as §1, §2, §3, §4

The next data set concerns N2A_Luc705 cells. Description: Splice switching activity assay, 24 hr SMC treatment, Examples 4C/4D. The settings on record: 2.5 μM compound, 1 μM SSO, FIG. 27. Format: cell-based. Here is the method:
(§5) U2OS_Luc705 and N2A_Luc705 cells were seeded in 96-well plates at 10,000 cells per well in growth media with 1 μM Luc705-SSO. The various SMCs were diluted directly into prepared growth media. After 24 hr to allow adherence and SSO internalization, 10 μl of diluted SMC was added into each well at indicated concentrations. For a positive control, SSOs were complexed with Lipofectamine 2000 for 30 min at RT and cells treated with a final concentration of 200 nM. ON concentrations above 200 nM would require LF2000 to be used in excess of the cells' toxicity threshold. After 24 hr treatment, cells were lysed with 0.1% TritonX-100 (Sigma Aldrich, cat no. X100) in 1× PBS (Gibco, cat no. 10010023).
(§6) For the detection of luciferase activity, 30 μL of cell lysate was transferred to white-walled plates. The luciferase intensity in each well was immediately measured via luminometer following auto-injection of 25 μL Luciferin substrate as per the Promega Firefly Luciferase Assay System. The timing parameters of photon measurements were optimized for this procedure.
(§7) The various SMCs were diluted directly into prepared growth media. After 24 hr to allow adherence and SSO internalization, 10 μl of diluted SMC was added into each well at indicated concentrations. For a positive control, SSOs were complexed with Lipofectamine 2000 for 30 min at RT and cells treated with a final concentration of 200 nM. ON concentrations above 200 nM would require LF2000 to be used in excess of the cells' toxicity threshold. After 24 hr treatment, cells were lysed with 0.1% TritonX-100 (Sigma Aldrich, cat no. X100) in 1× PBS (Gibco, cat no. 10010023).

The subject of another data set is U2OS_Luc705 cells. Described as above. Format: cell-based. The settings on record: 2.5 μM compound, 1 μM SSO, FIG. 27. As to the method:
as §5, §6, §7

In the case of `COc1nn(C2CCNCC2)cc1Nc1ncc(Cl)c(-n2ccc3c(C#N)cccc32)n1` [Compound 2], in the data set on mCherry-GAL9 cells, the “GAL9 recruitment, reason for selection for further characterization” value is “efficacy at shorter-term timepoints”. The “particle size profile of oligonucleotide in cell growth media” value in data set [1] is “No significant differences in particle size; also recorded: no significant changes in particle size profile”. For the same molecule, the “increase in SSO activity” value was “substantially higher increase in SSO activity than UNC2383” with HeLa Luc705 cells (1 μM SSO, 10, 5 or 1 μM compound for 2 hours, FIG. 2A) and 100 fold in the data set on HeLa Luc705 cells (co-treatment up to 5 μM, plateauing after 2 hours, FIG. 11C). In addition, the “increase in functional SSO activity” value with HeLa Luc705 cells (5 μM compound, 1 μM SSO or 100 nM SSO, FIG. 2B) is on record as “increase in activity”. Also, the “SSO activity, preload only” value in the data set on HeLa Luc705 cells (SSO only pre-treated, removed when compound added, FIG. 11A) was “no activity was seen”. For the same molecule, the “increase in SSO activity with lengthened pre-treatment” value is on record as “more pronounced” in the data set with HeLa Luc705 cells (SSO pre-treatment 48 hours instead of 24, FIG. 12A) and “more pronounced” in the data set on Huh7 Luc705 cells (SSO pre-treatment 48 hours instead of 24, FIG. 12B). Moreover, the “SSO activity without the pre-treating step” value in the data set on HeLa Luc705 cells (no pre-load, FIG. 13A) is “significant activity was observed”; in the data set on Huh7 Luc705 cells (no pre-load, FIG. 13B), “significant activity was observed”.

Consider `COc1nn(C2CCNCC2)cc1Nc1ncc(F)c(-n2ccc3c(C#N)cccc32)n1` [Compound 4], for which the “activity of the oligo as compared to oligo only” value in the data set with N2A_Luc705 cells and in the data set with U2OS_Luc705 cells was “enhanced activity of the oligo as compared to oligo only” each time.
